One series is described as follows: Solubility at pH 6.8. The following applies: pH 6.8, aqueous buffer, thermodynamic from solid; read-out: solubility. The format is physicochemical. The essentials:
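Following the procedure of Zhou et al. (2007), compound solubility was determined at pH 6.8.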

The target in a further series is T1, mTOR (Homo sapiens, UniProt P42345).
T1 construct: purchased Invitrogen Corporation (Carlsbad/CA, USA) PV4753
Briefly: Biochemical assay for m-TOR by TR-FRET. The following applies: 8 μM ATP, 400 nM GFP-4EBP1, 0.5 nM mTOR. The essentials:
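TR-FRET detection of pThr46 on GFP-4EBP1 (400 nM final) using Tb3+-labelled antibody (0.5 nM), added with EDTA to stop reactions. Reactions ran at rt with 0.5 nM mTOR and 8 μM ATP (final) in HEPES pH 7.5 buffer containing 10 mM MnCl2.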

For series [1], the system named is PKB Ser473 phosphorylation in Rat1-myr-HA-p110 alpha cells. Briefly: Reverse protein array assay, PKB Ser473 phosphorylation in Rat1-myr-p110 alpha cells. The format is cell-based. The following applies: 0.5 h, pAkt Ser473, 30 minutes compound incubation, read-out: p-PKB IC50. The gist of the method:
(§1)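 Rat1 cells expressing myristoylated HA-tagged p110 alpha, beta or delta were plated for at least 20 h, then exposed to 8-step serial compound dilutions (0.2% DMSO final) for 30 min at 37 °C. Lysates were spotted at four dilutions on protein microarrays, and relative fluorescence intensity of phospho-Ser473 PKB was calculated.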

In series [2] the test system is PKB Ser473 phosphorylation in Rat1-myr-HA-p110 beta cells. The series can be described thus: Reverse protein array assay, PKB Ser473 phosphorylation in Rat1-myr-p110 beta cells. The following applies: 0.5 h, pAkt Ser473, 30 minutes incubation, read-out: p-PKB IC50. The format is cell-based. The gist of the method:
as §1

The test system of series [3] is PKB Ser473 phosphorylation in Rat1-myr-HA-p110 delta cells. The series can be described thus: Reverse protein array assay, PKB Ser473 phosphorylation in Rat1-myr-p110 delta cells. The following applies: read-out: p-PKB IC50. The format is cell-based. The gist of the method:
as §1

The subject of series [4] is S6 Ribosomal Protein phosphorylation Ser235/236 in TSC1 null mouse embryo fibroblast (MEF) cells. The series can be described thus: Reverse protein array assay, S6 Ribosomal Protein phosphorylation Ser235/236 in TSC1 null MEF cells. In kind it is cell-based. The following applies: 1 h, pS6 ribosomal protein Ser235/236, 60 minutes incubation, read-out: p-S6 IC50. The essentials:
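TSC1−/− MEFs, seeded and held ≥20 h at 37 °C/5% CO2, were exposed to 8-step serial compound dilutions (0.02% DMSO final; DMSO vehicle control) for 60 min at 37 °C. Cells were then lysed on ice for 10 min and lysates spotted onto reverse protein array chips.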

The structures appear in SMILES notation. pIC50: −log10 of the molar value. Values after ≈ are worked out from the molar mass of the structure shown. Where only a bound is given, the exact number is not on record here.

T1 sequence (P42345 1360-2549 limits assumed): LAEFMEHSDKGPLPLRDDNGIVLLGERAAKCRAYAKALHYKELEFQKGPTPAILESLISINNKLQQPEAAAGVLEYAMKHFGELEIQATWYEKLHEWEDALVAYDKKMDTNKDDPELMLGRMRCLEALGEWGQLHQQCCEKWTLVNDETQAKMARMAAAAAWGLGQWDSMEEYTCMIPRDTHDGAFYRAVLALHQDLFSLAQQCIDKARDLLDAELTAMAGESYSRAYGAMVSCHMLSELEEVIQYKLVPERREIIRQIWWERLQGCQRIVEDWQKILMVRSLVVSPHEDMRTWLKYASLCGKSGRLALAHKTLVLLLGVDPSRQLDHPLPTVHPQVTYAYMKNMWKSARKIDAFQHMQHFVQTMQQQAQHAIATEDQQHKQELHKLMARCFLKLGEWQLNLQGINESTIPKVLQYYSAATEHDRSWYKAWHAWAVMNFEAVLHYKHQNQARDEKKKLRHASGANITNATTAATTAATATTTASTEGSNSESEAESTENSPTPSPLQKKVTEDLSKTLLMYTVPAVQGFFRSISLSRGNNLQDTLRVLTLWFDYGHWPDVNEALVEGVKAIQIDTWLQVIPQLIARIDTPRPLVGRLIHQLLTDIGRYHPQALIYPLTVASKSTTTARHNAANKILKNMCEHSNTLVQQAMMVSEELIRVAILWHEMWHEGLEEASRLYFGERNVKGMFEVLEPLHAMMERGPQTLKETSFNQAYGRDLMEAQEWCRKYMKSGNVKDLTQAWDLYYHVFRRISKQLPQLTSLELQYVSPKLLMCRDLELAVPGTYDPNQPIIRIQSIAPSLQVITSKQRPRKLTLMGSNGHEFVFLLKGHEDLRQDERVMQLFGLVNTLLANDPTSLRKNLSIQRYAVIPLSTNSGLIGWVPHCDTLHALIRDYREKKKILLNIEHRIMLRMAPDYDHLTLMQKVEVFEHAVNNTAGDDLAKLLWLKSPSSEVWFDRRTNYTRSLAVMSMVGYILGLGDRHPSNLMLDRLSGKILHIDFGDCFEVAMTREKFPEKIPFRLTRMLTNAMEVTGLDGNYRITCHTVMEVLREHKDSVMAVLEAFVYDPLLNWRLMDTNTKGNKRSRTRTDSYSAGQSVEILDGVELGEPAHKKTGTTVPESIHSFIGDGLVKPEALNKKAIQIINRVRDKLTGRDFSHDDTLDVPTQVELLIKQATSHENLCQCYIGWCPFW

On to `CCOCc1cc(-c2ccc3ncc4c(c3c2)n(-c2cn(C)nc2C)c(=O)n4C)cnc1N` [Example 166.1, 8-(6-Amino-5-ethoxymethyl-pyridin-3-yl)-1-(1,3-dimethyl-1H-pyrazol-4-yl)-3-methyl-1,3-dihydro-imidazo[4,5-c]quinolin-2-one], for which the solubility in “Solubility at pH 6.8” was determined as 33 µg/mL (≈ 74.4 µM). Moreover, the negative-log IC50 (pIC50) was 7.48 at mTOR; 7.66 in series [1]; 7.27 in series [2]; 7.24 in series [3]; 8.52 in series [4].
On to `COCCN(C)C(=O)Cn1cc(-n2c(=O)n(C)c3cnc4ccc(-c5ccccc5)cc4c32)c(C)n1` [Example 137, N-(2-Methoxy-ethyl)-N-methyl-2-[3-methyl-4-(3-methyl-2-oxo-8-phenyl-2,3-dihydro-imidazo[4,5-c]quinolin-1-yl)-pyrazol-1-yl]-acetamide], for which the solubility in “Solubility at pH 6.8” worked out at 427 µg/mL (≈ 881 µM). Further, the pIC50 on mTOR is 6.49; in series [1], 6.49; in series [2], 6.37; in series [3], 6.23; in series [4] it was 8.05.
Take `CCNc1cc(-c2ccc3ncc4c(c3c2)n(-c2cn(C(C)C)nc2C)c(=O)n4C)cnc1CO` [Example 155.3, 8-(5-Ethylamino-6-hydroxymethyl-pyridin-3-yl)-1-(1-isopropyl-3-methyl-1H-pyrazol-4-yl)-3-methyl-1,3-dihydro-imidazo[4,5-c]quinolin-2-one]: the solubility in the series “Solubility at pH 6.8” is more than 472 µg/mL. For the same compound, the pIC50 on mTOR was 8.30; in series [1] it was more than 8.30; in series [2], more than 8.30; in series [3], 8.05; in series [4], 9.00.

The values above are taken from patent publication US20140005163A1 (NOVARTIS AG, priority 2010, published 2014).
